The values below come from ChEMBL document CHEMBL5331121, “Preferred Conformation-Guided Discovery of Potent and Orally Active HIF Prolyl Hydroxylase 2 Inhibitors for the Treatment of Anemia” (J Med Chem, 2023).

The target of data set [1] is Egl nine homolog 1 (Homo sapiens, UniProt Q9GZT9). Description: Binding affinity to […] PHD2 (181 to 426 residues) (unknown origin) by fluorescence polarization assay.
The nature of data set [2]: Metabolic stability in rat liver microsomes assessed as clearance at 1 uM preincubated for 5 mins followed by NADPH addition and measured upto 60 mins by LC-MS/MS analysis. Format: ADME, Microsome. Particulars: time < 65 min, read-out: CLH.
Data set [3] concerns Erythrocyte. Description: Upregulation of reticulocytes in C57BL/6J mouse assessed as increase in RBC at 10 to 50 mg/kg, po administered once daily for 3 days. Format: functional, organism-based. Particulars: dose 10-50 mg/kg, time 3.0 day.
The test system of data set [4] is Mus musculus. Description: Upregulation of reticulocytes in C57BL/6J mouse at 10 mg/kg, po administered once daily for 3 days. The format is functional, organism-based. Particulars: time 3.0 day.
Data set [5] concerns the target Hypoxia-inducible factor 1-alpha (Homo sapiens) (UniProt Q16665). Description: Induction of HIF-1alpha stabilization in human Hep3B cells at 20 to 50 uM by Western blotting analysis. Format: cell-based. Particulars: dose 20-50 µM.
Data set [6] concerns the target Endothelial PAS domain-containing protein 1 (Homo sapiens) (UniProt Q99814). The data set can be described thus: Induction of HIF-2alpha stabilization in human Hep3B cells at 20 to 50 uM by Western blotting analysis. Particulars: dose 20-50 µM. The format is cell-based.
Data set [7] can be described thus: Metabolic stability in rat liver microsomes assessed as half life at 1 uM preincubated for 5 mins followed by NADPH addition and measured upto 60 mins by LC-MS/MS analysis. Particulars: time < 65 min. The format is ADME, Microsome.
Data set [8] concerns Hep 3B2. The data set can be described thus: Cytotoxicity against human Hep3B cells incubated for 48 hrs by CCK-8 assay. The format is toxicity, cell-based. Particulars: hep 3b2, 48 h.
Data set [9] concerns Hep 3B2. The data set can be described thus: Effect on VEGFA gene expression in human Hep3B cells at 5 to 20 uM incubated for 12 hrs by RT-qPCR analysis. Particulars: dose 5-20 µM. Format: functional, cell-based.
Data set [10] in a line: Upregulation of EPO mRNA level in human Hep3B cells assessed as fold increase at 20 uM incubated for 12 hrs by RT-qPCR analysis. Format: functional, Hep 3B2.
Data set [11] deals with Hep 3B2. Description: Upregulation of EPO mRNA level in human Hep3B cells incubated for 12 hrs by RT-qPCR analysis. Format: functional, cell-based. Particulars: dose 5-20 µM.

pIC50: −log10 of the molar value. Calls of active or inactive are those of the source. The calls are words filed in the database; no cut-off is given here.

Sequence of Egl nine homolog 1 (Q9GZT9 whole entry, the tested form may be a part): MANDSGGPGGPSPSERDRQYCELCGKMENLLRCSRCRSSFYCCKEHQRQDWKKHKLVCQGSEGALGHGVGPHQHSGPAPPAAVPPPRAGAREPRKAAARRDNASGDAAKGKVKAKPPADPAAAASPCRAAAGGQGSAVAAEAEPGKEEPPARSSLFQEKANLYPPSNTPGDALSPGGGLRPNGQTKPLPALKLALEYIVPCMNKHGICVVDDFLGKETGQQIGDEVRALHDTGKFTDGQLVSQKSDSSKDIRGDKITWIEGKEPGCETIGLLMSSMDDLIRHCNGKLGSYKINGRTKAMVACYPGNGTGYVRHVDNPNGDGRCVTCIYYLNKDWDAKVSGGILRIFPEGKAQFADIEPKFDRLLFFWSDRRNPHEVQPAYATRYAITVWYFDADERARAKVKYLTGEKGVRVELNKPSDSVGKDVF
Sequence of Hypoxia-inducible factor 1-alpha (Homo sapiens) (Q16665 whole entry, looked up, the tested form may be a part): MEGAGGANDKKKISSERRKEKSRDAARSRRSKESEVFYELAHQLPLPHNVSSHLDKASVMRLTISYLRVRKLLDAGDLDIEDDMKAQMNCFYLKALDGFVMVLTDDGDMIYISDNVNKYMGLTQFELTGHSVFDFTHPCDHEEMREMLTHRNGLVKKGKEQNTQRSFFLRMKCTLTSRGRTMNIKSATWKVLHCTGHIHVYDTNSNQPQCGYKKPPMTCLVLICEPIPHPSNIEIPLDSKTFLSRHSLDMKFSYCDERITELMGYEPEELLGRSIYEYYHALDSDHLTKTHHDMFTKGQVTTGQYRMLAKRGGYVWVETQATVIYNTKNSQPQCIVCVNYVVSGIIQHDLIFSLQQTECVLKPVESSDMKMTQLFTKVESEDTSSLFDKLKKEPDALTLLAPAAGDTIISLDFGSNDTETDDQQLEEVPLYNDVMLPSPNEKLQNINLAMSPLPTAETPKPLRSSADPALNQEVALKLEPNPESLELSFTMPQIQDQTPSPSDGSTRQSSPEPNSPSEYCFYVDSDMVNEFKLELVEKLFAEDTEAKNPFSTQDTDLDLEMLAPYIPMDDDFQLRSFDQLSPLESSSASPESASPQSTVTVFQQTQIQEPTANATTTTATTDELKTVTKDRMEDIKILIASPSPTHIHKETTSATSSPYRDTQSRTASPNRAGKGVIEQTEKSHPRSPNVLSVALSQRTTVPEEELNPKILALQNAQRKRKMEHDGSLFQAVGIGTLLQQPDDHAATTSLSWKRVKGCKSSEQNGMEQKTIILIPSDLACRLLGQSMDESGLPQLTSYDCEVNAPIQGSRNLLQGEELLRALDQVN
Sequence of Endothelial PAS domain-containing protein 1 (Homo sapiens) (Q99814 whole entry, the tested form may be a part): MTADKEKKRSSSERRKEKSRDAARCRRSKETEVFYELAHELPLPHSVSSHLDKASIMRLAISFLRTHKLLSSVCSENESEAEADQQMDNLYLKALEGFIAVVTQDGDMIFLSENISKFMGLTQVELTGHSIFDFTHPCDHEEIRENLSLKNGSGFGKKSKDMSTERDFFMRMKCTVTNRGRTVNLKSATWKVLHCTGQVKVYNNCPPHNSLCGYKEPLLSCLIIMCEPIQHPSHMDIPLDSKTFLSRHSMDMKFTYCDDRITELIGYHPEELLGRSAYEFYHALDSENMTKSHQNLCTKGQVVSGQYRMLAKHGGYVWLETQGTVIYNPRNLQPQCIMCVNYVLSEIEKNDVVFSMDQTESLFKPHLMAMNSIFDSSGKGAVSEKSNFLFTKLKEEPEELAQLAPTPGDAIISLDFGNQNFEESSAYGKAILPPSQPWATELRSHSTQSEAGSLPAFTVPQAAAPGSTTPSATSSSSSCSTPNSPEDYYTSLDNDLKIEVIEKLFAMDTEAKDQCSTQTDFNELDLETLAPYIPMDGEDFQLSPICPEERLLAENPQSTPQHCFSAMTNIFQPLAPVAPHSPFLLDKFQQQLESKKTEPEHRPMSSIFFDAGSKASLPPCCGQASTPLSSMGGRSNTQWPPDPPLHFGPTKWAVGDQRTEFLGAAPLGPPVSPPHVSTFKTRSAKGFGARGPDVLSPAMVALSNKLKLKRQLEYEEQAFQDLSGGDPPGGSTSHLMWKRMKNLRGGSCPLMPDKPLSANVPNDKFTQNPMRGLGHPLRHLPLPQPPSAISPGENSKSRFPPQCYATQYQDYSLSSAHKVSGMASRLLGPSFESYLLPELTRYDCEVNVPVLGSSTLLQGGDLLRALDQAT

With `O=C(O)CNC(=O)c1ncc(C2CCN(C(=O)CNc3ccc(C(F)(F)F)cc3)CC2)cc1O`, in [1], the pIC50 is 7.36. The microsomal CLint at 1 µM in data set [2] was determined as 5.6 µL/min/mg.

In turn, `O=C(O)CNC(=O)c1ncc(C2CCN(C(=O)CNc3ccc(OC(F)(F)F)cc3)CC2)cc1O` gave a pIC50 in data set [1] of 7.40. Consider `O=C(O)CNC(=O)c1ncc(-c2cccc(Cl)c2)cc1O`, for which the Activity result in [3] is “Dose-Dependent Effect”. In addition, in data set [4], the outcome was Active. `O=C(O)CNC(=O)c1ncc(C2CCN(C(=O)c3ccccn3)CC2)cc1O` gave a pIC50 in data set [1] of 6.80. Same read-out and setting: the figure for `O=C(O)CNC(=O)c1ncc(C2CCN(C(=O)c3ccc(Cl)cc3)CC2)cc1O` is 7.46. The same measure, in the same setting: the figure for `O=C(O)CNC(=O)c1ncc(C2CCN(C(=O)c3ccccc3Cl)CC2)cc1O` is 6.88; for `O=C(O)CNC(=O)c1ncc(C#CCOc2ccc(Cl)cc2)cc1O` [DDO-3055] it is 7.81. Turning to `Cc1nc(C(=O)NCC(=O)O)c(O)c2ccc(Oc3ccccc3)cc12`, the Activity result in data set [3] was “Dose-Dependent Effect”. Also, the outcome in data set [4], in data set [5] and in [6] was Active. `Cc1ccc(NCC(=O)N2CCC(c3cnc(C(=O)NCC(=O)O)c(O)c3)CC2)cc1`: the pIC50 in data set [1] was 7.19. With `O=C(O)CNC(=O)c1ncc(C2CCN(C(=O)c3ccc(Cl)cc3Cl)CC2)cc1O`, the pIC50 in data set [1] is 6.84.

The compound `O=C(O)CNC(=O)c1ncc(C2CCN(C(=O)c3ccccc3F)CC2)cc1O` gave a pIC50 in data set [1] of 7.03. `O=C(O)CNC(=O)c1ncc(C2CCN(C(=O)c3cccs3)CC2)cc1O` had a pIC50 in data set [1] of 7.24. Take `COc1ccc(C(=O)N2CCC(c3cnc(C(=O)NCC(=O)O)c(O)c3)CC2)cc1`: the pIC50 in data set [1] was 7.27. `N#Cc1ccc(C(=O)N2CCC(c3cnc(C(=O)NCC(=O)O)c(O)c3)CC2)cc1` gave a pIC50 in data set [1] of 7.12. Same read-out and setting: the figure for `O=C(O)CNC(=O)c1ncc(C2CCN(C(=O)CNc3ccc(Cl)cc3Cl)CC2)cc1O` is 7.49.

`O=C(O)CNC(=O)c1ncc(C2=CCN(S(=O)(=O)Cc3ccc(C(F)(F)F)cc3)CC2)cc1O` gave a pIC50 in [1] of 7.88. Also, the microsomal CLint at 1 µM in [2] was 135 µL/min/mg. In addition, the half-life at 1 µM in data set [7] was determined as 7.35 min. `Cc1ccc(C(=O)N2CCC(c3cnc(C(=O)NCC(=O)O)c(O)c3)CC2)cc1`: the pIC50 in [1] was 7.46. `O=C(O)CNC(=O)c1ncc(C2CCN(C(=O)CNc3ccc(F)cc3)CC2)cc1O`: the pIC50 in data set [1] was 7.61. In the case of `O=C(O)CNC(=O)c1ncc(C2CCN(C(=O)c3ccc(OC(F)(F)F)cc3)CC2)cc1O`, the Activity entry is “Dose-Dependent Effect” in [3], “Non-Toxic” in data set [8] and “Dose-Dependent Effect” in [11]. For the same compound, the outcome in data set [4], in data set [5] and in data set [6] was Active. Besides, the outcome in data set [9] was inactive. The compound also had a pIC50 in data set [1] of 7.61. Besides, the “fold change (FC)” value in [10] is on record as 7. As to `O=C(O)CNC(=O)c1ncc(C2CCN(C(=O)c3ccc(C(F)(F)F)cc3)CC2)cc1O`, in [4], the result was Active. The compound further gave a pIC50 in data set [1] of 7.35. Besides, the microsomal CLint at 1 µM in [2] is 3.7 µL/min/mg. In data set [1], `O=C(O)CNC(=O)c1ncc(-c2cn(CCCc3ccc(Cl)cc3)nn2)cc1O` gave a pIC50 of 7.64. Same read-out and setting: the figure for `O=C(O)CNC(=O)c1ncc(C2CCN(C(=O)c3ccccc3)CC2)cc1O` is 7.16. `O=C(O)CNC(=O)c1ncc(C2CCN(C(=O)c3cccc(Cl)c3)CC2)cc1O`: in data set [1], the pIC50 is 6.71. Compound `O=C(O)CNC(=O)c1ncc(C2CCN(C(=O)CNc3ccccc3)CC2)cc1O` had a pIC50 in data set [1] of 7.25.

For `O=C(O)CNC(=O)c1ncc(C2CCN(S(=O)(=O)Cc3ccc(C(F)(F)F)cc3)CC2)cc1O`, the pIC50 in [1] is 7.00. In data set [2], the microsomal CLint at 1 µM is 5 µL/min/mg. As to `O=C(O)CNC(=O)c1ncc(C2CCN(C(=O)CNc3ccc(Cl)c(Cl)c3)CC2)cc1O`, the result in data set [4] was Active. In data set [1], this compound gave a pIC50 of 7.71.

`O=C(O)CNC(=O)c1ncc(C2CCN(C(=O)c3cccc(F)c3)CC2)cc1O`: in [1], the pIC50 was 7.11. Compound `O=C(O)CNC(=O)c1ncc(C2CCN(C(=O)c3ccc(F)cc3)CC2)cc1O` gave a pIC50 in data set [1] of 7.17. In data set [1], `O=C(O)CNC(=O)c1ncc(C2CCN(C(=O)c3cc(F)cc(F)c3)CC2)cc1O` had a pIC50 of 6.59.
